Measurements as given in US6992193B2, “Sulfonylamino phenylacetamide derivatives and methods of their use” (Adolor Corporation, priority 2003, dated 2006).
Where a name gives a salt, the structure may show the parent alone. Read-outs that look alike come from different tables or passages of the source.

Tests used:
[1] = biological target: T1, cloned human κ opioid receptor (Homo sapiens, UniProt P41145); assay: [3H]diprenorphine binding to cloned human κ opioid receptor
T1 construct: expressed in transfected cells
Protocol: (§1) IC50 values were obtained by nonlinear analysis of the data using GraphPad Prism version 3.00 for Windows (GraphPad Software, San Diego). Ki values were obtained by Cheng-Prusoff corrections of IC50 values.
(§2) After dilution in buffer A and homogenization as before, membrane proteins (10-80 μg) in 250 μL were added to mixtures containing test compound and [^3H]diprenorphine (0.5 to 1.0 nM, 40,000 to 50,000 dpm) in 250 μL of buffer A in 96-well deep-well polystyrene titer plates (Beckman). After incubation at room temperature for one hour, the samples were filtered through GF/B filters that had been presoaked in a solution of 0.5% (w/v) polyethylenimine and 0.1% (w/v) bovine serum albumin in water. The filters were rinsed 4 times with 1 mL of cold 50 mM Tris HCl, pH 7.8 and radioactivity remaining on the filters determined by scintillation spectroscopy. Nonspecific binding was determined by the minimum values of the titration curves and was confirmed by separate assay wells containing 10 μM naloxone.
(§3) To determine the equilibrium dissociation constant for the inhibitors (Ki), radioligand bound (cpm) in the presence of various concentrations of test compounds was measured. […] The nonlinear regression fit was performed using the program Prism® (GraphPad Software, San Diego, Calif.).

cloned human κ receptors = biological target: T2, cloned human κ receptors (Homo sapiens, UniProt P41145); assay: [35S]GTPγS binding stimulation, membranes containing cloned human κ receptors; format: biochemical; conditions: half-maximal stimulation of [35S]GTPγS binding, cloned human κ receptor
T2 construct: expressed in transfected cells
Protocol: The potencies of the agonists were assessed by their abilities to stimulate [^35S]GTPγS binding to membranes containing the cloned human κ receptors.
To determine the EC50 value, which was the concentration to give half-maximal stimulation of [^35S]GTPγS binding, the amount of [^35S]GTPγS bound in the presence of various concentrations of agonists was measured. The EC50 value was then determined.

[2] = biological target: T3, cloned human μ opioid receptor (Homo sapiens, UniProt P35372); assay: [3H]diprenorphine binding to cloned human μ opioid receptor
T3 construct: expressed in transfected cells
Protocol: as §1, §2
as §3, with “Calif.). The Ki values were then determined from the […] values by the following equation, [formula] • where [ligand] is the concentration of radioligand; and • Kd is the equilibrium dissociation constant for the radioligand.” for “Calif.).”

[3] = biological target: T4, cloned human δ opioid receptor (Homo sapiens, UniProt P41143); assay: [3H]diprenorphine binding to cloned human δ opioid receptor
T4 construct: expressed in transfected cells
Protocol: as §1, §2
as §3, with “Calif.). The Ki values were then determined from the […] values by the following equation, [formula] • where [ligand] is the concentration of radioligand; and • Kd is the equilibrium dissociation constant for the radioligand.” for “Calif.).”

CYP2D6 = biological target: T5, CYP2D6 (Homo sapiens, UniProt P10635); assay: Inhibition of CYP2D6 catalyzed conversion of MAMC to HAMC; format: in vitro ADME; conditions: MAMC to HAMC conversion; for IC50: read-out: IC50(CYP2D6)
T5 construct: purchased BD Biosciences
Protocol: Inhibition of CYP2D6 Catalyzed Conversion of MAMC to HAMC
Microsomes containing baculovirus expressed human recombinant CYP2D6 and MAMC were purchased from BD Biosciences. The method is a modification of the method provided by BD Biosciences.
• Assay Buffer=50 mM KPO4, 15 μg/mL NADP^+, 0.30 mg/mL glucose-6-phosphate, 0.20 mg/mL MgCl2, 0.96 U/mL glucose-6-phosphate dehydrogenase, 2.5 μM MAMC, pH 7.4. • Dilution Buffer=50 mM KPO4, pH 7.4 • Enzyme Buffer=150 mM KPO4, pH 7.4 • Stop Solution=80% acetonitrile, 20% 0.5 M Tris Base Procedure:
The assays were done in black 96 well plates (VWR Cat# 22221-572) and contained: 40 μL assay buffer, 10 μL test compound in dilution buffer and 50 μL of 10-15 pmol/mL CYP2D6 in enzyme buffer. Final concentrations: (100 mM KPO4, pH 7.4, 7.9 μM NADP^+, 0.36 mM glucose-6-phosphate, 0.4 mM MgCl2, 0.38 U/mL glucose-6-phosphate dehydrogenase, 1 μM MAMC (BD Biosciences), 0.5 pmol CYP2D6 (BD Biosciences))
For large experiments, assay buffer and test compound were added using the MiniTrak IV (Packard Biosciences), otherwise they were added using 25-250 μL and 5-100 μL 8 channel electronic pipettors (BioHit). CYP2D6 was added using 25-250 μL 8 channel electronic pipettor.
Titrations are done in either 96 well deep-well plates (Beckman) or 96 well microtiter plates (Costar), an initial dilution in dilution buffer is prepared from stock solutions in DMSO to start either 8 (1:6) or 12 (1:3.15) serial dilutions. For 1:6 dilutions, 50 μL for each dilution is transferred to 250 μL dilution buffer. For 1:3.15 dilutions, 50 μL for each dilution is transferred to 108 μL dilution buffer. Further details on concentrations will be provided in each experiment. Titrations are done using either 25-250 μL 8 channel electronic pipettor, 30-300 μL 12 channel manual pipettor (Spectrum), or the Multiprobe II. For screening, dilution plates are prepared in dilution buffer in 96 well microtiter plates from masterplates in 100% DMSO using the Multiprobe II or MiniTrak IV. After assay buffer and test compound has been added, the plates and the enzyme buffer are prewarmed at 37° C. for 15 minutes. After prewarming, CYP2D6 is added to then enzyme buffer and then added to the assay plate using 25-250 μL 8 channel electronic pipettor and the plates are incubated for 15 minutes at 37° C. After incubation, 50 μL stop solution is added using 25-250 μL 8 channel electronic pipettor. The plates are then counted on the Fusion (Packard Biosciences) for 4 sec/well using and excitation filter of 390 nm and an emission filter of 460 nm, intensity setting of 1, high detector sensitivity.
Non-specific relative fluorescent units (RFU) are determined in the presence of 10 μM quinidine in wells A1, B1, and C1 of each plate and total RFU determined in wells D1, E1, F1 in the absence of test compound. Specific HAMC production is the difference between total and nonspecific. For each compound, a percent inhibition of HAMC production is calculated by: % I=(1−(A/B))*100 • where A=cpm specifically bound for test compound • B=cpm specifically bound in the absence of test compound For experiments where the plates are registered in the biological database, % I is determined automatically by the biological database. Titrations
IC50's are calculated using nonlinear regression to a one-site model using GraphPad Prism or a VB algorithm fitting the data to that equation.

CYP2C9 = CYP2C9 (Homo sapiens, UniProt P11712); assay: Inhibition of CYP2C9 conversion of dibenzylfluorescein to fluorescein; format: in vitro ADME; conditions: DBF to fluorescein conversion; read-out: IC50(CYP2C9)
Protocol: (§4) Inhibition of CYP2C9 and CYP3A4
(§5) These assays were carried out as described using CYP2C9 and CYP3A4 conversion of dibenzylfluorescein (DBF) to fluorescein (F).

CYP3A4 = CYP3A4 (Homo sapiens, UniProt P08684); assay: Inhibition of CYP3A4 conversion of dibenzylfluorescein to fluorescein; format: in vitro ADME; conditions: DBF to fluorescein conversion; read-out: IC50(CYP3A4)
Protocol: as §4, §5

[4] = test system: cytochrome P450 enzymes (CYP2D6, CYP3A4, CYP2C9); assay: Overall evaluation of inhibition of major drug metabolizing hepatic cytochrome P450 enzymes; format: in vitro ADME, human
[5] = inhibition of [3H]diprenorphine binding, cloned human μ receptor, read-out: Ki(μ)

T5 sequence (P10635 whole entry): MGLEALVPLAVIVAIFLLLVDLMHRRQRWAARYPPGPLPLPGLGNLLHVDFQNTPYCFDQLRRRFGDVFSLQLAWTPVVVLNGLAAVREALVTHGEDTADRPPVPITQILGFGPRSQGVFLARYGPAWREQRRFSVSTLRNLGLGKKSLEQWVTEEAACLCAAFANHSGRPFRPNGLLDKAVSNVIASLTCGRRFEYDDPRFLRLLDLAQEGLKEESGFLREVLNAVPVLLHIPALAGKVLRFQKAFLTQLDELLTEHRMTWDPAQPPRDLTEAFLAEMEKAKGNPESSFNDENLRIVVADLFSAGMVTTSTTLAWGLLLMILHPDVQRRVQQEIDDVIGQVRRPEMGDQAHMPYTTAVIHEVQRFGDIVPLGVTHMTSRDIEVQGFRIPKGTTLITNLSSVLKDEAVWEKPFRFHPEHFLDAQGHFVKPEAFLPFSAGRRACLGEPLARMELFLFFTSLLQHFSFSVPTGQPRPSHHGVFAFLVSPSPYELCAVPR
Chain of CYP3A4 (P08684 whole entry): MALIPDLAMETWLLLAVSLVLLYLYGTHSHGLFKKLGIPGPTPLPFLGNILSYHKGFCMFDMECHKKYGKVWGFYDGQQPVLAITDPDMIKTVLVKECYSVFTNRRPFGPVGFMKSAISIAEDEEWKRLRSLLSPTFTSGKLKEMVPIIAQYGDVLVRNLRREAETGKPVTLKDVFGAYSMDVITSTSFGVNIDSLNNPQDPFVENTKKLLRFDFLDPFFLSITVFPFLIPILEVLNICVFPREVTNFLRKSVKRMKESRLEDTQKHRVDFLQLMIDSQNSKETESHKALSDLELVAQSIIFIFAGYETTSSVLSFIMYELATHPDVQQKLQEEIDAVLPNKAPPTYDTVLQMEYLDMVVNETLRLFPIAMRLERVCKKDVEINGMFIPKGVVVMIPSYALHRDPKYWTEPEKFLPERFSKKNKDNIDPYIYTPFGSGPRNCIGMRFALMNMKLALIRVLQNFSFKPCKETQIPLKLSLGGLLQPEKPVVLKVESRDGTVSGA
T3 sequence (P35372 whole entry): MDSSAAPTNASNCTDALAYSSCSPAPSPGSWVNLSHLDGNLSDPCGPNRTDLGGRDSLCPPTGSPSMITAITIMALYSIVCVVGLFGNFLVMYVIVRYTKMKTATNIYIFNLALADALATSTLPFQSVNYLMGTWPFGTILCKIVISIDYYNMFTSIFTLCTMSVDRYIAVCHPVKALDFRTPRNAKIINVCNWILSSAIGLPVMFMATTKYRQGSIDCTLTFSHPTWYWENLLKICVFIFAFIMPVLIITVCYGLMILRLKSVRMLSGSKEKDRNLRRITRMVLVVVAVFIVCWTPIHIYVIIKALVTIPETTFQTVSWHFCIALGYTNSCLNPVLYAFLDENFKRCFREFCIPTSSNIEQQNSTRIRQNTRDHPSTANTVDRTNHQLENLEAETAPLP
Chain of CYP2C9 (P11712 whole entry): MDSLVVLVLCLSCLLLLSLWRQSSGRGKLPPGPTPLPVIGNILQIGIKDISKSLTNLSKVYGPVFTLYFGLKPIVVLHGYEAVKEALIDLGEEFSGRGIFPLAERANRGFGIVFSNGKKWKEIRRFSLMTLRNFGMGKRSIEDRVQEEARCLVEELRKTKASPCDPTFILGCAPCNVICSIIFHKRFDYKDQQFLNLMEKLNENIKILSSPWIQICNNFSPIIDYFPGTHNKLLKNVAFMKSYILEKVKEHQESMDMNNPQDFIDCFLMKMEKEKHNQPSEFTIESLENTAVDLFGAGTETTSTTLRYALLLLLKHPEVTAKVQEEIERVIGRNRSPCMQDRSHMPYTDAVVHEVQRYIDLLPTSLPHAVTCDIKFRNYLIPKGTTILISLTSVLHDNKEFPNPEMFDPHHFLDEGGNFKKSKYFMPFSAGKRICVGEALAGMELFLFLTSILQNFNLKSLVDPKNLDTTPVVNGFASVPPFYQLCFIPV
T4 sequence (P41143 whole entry): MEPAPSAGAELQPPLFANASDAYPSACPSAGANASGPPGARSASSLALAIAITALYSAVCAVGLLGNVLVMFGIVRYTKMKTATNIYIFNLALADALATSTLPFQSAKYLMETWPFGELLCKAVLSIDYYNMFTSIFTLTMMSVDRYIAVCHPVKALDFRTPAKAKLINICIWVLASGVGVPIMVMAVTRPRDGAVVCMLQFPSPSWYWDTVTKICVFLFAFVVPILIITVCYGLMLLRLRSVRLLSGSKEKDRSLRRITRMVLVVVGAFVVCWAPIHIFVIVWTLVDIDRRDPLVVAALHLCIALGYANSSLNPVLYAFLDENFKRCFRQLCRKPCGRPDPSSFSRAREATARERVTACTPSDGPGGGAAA
T1 sequence (P41145 whole entry): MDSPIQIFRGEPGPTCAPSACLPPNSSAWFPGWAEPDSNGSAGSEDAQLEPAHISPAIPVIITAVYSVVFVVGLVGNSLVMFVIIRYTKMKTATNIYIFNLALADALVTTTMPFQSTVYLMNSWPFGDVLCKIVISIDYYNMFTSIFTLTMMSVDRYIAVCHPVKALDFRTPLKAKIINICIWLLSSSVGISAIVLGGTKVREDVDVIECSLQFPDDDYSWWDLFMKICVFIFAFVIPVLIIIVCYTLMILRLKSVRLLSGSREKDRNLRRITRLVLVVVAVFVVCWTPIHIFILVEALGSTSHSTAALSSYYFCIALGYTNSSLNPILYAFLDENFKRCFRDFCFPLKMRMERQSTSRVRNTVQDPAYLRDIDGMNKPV
T2 sequence (P41145 whole entry): as above

Compound | Ki [1] [nM] | EC50 (cloned human κ receptors) [nM] | Ki [2] [nM] | Ki [3] [nM] | IC50 (CYP2D6) [nM] | IC50 (CYP2C9) [nM] | IC50 (CYP3A4) [nM] | activity toward the cytochrome P450 (summary in words) [4] | Ki [2, 5] [nM] | IC50 at 15 min (CYP2D6; human, pH 7.4, probe MAMC (1 µM)) [nM] | Ki ([3]; inhibition of [3H]diprenorphine binding, cloned human δ receptor, read-out: Ki(δ)) [nM]
CN(C(=O)Cc1ccc(CNS(=O)(=O)c2cccs2)cc1)[C@H](CN1CC[C@H](O)C1)c1ccccc1 [Example 22, N-{2-[3-(S)-hydroxy-pyrrolidin-1-yl]-1-(S)-Phenyl-ethyl}-N-methyl-2-{4-[(thiophene-2-sulfonylamino)-methyl]-phenyl}-acetamide hydrochloride] | 2.9 | 4.9 | 1100 | 56 | 5800 | > 10000 | 4400 |  |  |  | 
Cc1noc(C)c1S(=O)(=O)NCc1ccc(CC(=O)N(C)[C@H](CN2CC[C@H](O)C2)c2ccccc2)cc1 [Example 23, 2-{4-[(3,5-dimethyl-isoxazole-4-sulfonylamino)-methyl]-phenyl}-N-{2-[3-(S)-hydroxy-pyrrolidin-1-yl]-1-(S)-phenyl-ethyl}-N-methyl-acetamide hydrochloride] | 25 | 52 | 1400 | 320 | 11000 | > 10000 | 4300 |  |  |  | 
CN(C(=O)Cc1ccc(CN(C)S(C)(=O)=O)cc1)[C@H](CN1CC[C@H](O)C1)c1ccccc1.Cl [Example 24, N-{2-[3-(S)-hydroxy-pyrrolidin-1-yl]-1-(S)-phenyl-ethyl}-2-{4-[(methanesulfonyl-methyl-amino)-methyl]-phenyl}-N-methyl-acetamide hydrochloride] | 14 | 55 | 200 | 540 | > 10000 | > 10000 | > 10000 | metabolically stable in regard to their activity toward the cytochrome P450 |  |  | 
CN(C(=O)Cc1ccc(CCNS(C)(=O)=O)cc1)[C@H](CN1CC[C@H](O)C1)c1ccccc1.Cl [Example 26, N-{2-[3-(S)-hydroxy-pyrrolidin-1-yl]-1-(S)-phenyl-ethyl}-2-[4-(2-methanesulfonylamino-ethyl)-phenyl]-N-methyl-acetamide hydrochloride] |  |  |  | 110 |  | > 10000 | > 10000 | metabolically stable in regard to their activity toward the cytochrome P450 | 790 | 10000 | 
CN(C(=O)Cc1ccc(CCCNS(C)(=O)=O)cc1)[C@H](CN1CC[C@H](O)C1)c1ccccc1.Cl [Example 27, N-{2-[3-(S)-hydroxy-pyrrolidin-1-yl]-1-(S)-phenyl-ethyl}-2-[4-(3-methanesulfonylamino-propyl)-phenyl]-N-methyl-acetamide hydrochloride] |  |  |  |  | > 10000 | > 10000 | > 10000 | metabolically stable in regard to their activity toward the cytochrome P450 | 320 |  | 240
CC(C)[C@@H](CN1CC[C@H](O)C1)N(C)C(=O)Cc1ccc(CNS(C)(=O)=O)cc1.O=C(O)C(F)(F)F [Example 28, N-{1-[3-(S)-hydroxy-pyrrolidin-1-ylmethyl]-2-methyl-(S)-propyl}-2-[4-(methanesulfonylamino-methyl)-phenyl]-N-methyl-acetamide trifluoroacetate] | 6.2 | 79 | > 3000 | > 3000 | > 10000 | > 10000 | > 10000 | metabolically stable in regard to their activity toward the cytochrome P450 |  |  | 
CS(=O)(=O)NCc1ccc(CC(=O)N2CCCC[C@H]2CN2CC[C@H](O)C2)cc1.O=C(O)C(F)(F)F [Example 29, N-[4-(2-{2-[3-(S)-hydroxy-pyrrolidin-1-ylmethyl]-(S)-piperidin-1-yl}-2-oxo-ethyl)-benzyl]-methanesulfonamide trifluoroacetate] | 2.1 | 27 | > 3000 | > 3000 | > 10000 | > 10000 | > 10000 | metabolically stable in regard to their activity toward the cytochrome P450 |  |  | 
